One series has as its target T1, CYP2D6 (Homo sapiens, UniProt P10635).
T1 construct: tissue BD-Gentest 452117; host or cells: human liver microsomes
The series is described as follows: CYP inhibition assay in human liver microsome, CYP2D6. The format is in vitro ADME. The conditions noted are these: human, human liver microsomes, probe dextromethorphan 5 μM, substrate dextromethorphan 5 μM, second value of 2C9/2D6/3A4. On the procedure:
(§1) This is a high throughput screening assay used for assessment of reversible inhibition of CYP2C9, CYP2D6, and CYP3A4 activity of test compounds in human liver microsome (HLM) in early discovery stage.
(§2) 10 mM DMSO stock solutions of test compounds were diluted in DMSO to generate 2 mM intermediate stock solution. 250 nL, of intermediate stock solution were transferred in duplicate into 3 separate 384 well microtitre plates (assay-ready plates). A mixture of HLM and each substrate was made up. 45 μL of HLM substrate mix was then transferred to each well of an assay ready plate and mixed. The negative (solvent) and positive controls (standard inhibitor for each CYP) were included in each assay ready plate. The assay ready plate was warmed to 37° C. in an incubator over 10 minutes. 5 μL pre-warmed NADPH regenerating system was added to each incubation well to start the reaction. Final incubation volume was 50 μL. The assay plate then was placed back in the 37° C. incubator. After incubation (10 minutes for CYP2D6) for 5 minutes, incubates were quenched by addition of 50 μL 100% acetonitrile containing internal standards (400 ng/mL 13C6-4′-OH-Diclofenac, 20 ng/mL D3-Dextrorphan and 20 ng/mL D4-1′OH-Midazolam). The supernatants were collected for RapidFire/MS/MS analysis.
(§3) RapidFire online solid phase extraction/sample injection system (Agilent) coupled with API4000 triple quadrupole mass spectrometer (AB Sciex) were used for sample analysis. The mobile phase composed of acetonitrile and water supplemented with 0.1% formic acid. A C4 solid phase extraction cartridge is used for sample separation. MS detection is achieved in positive ion MRM mode.
(§4) Peak areas for substrate, metabolite and internal standard are determined using the RapidFire integrator software (version 3.6.12009.12296). Peak area ratios (PAR) of metabolite and internal standard (stable-labelled metabolite) are then calculated. The measurement window for each experiment is then defined:
(§5) PAR (0% activity)=average PAR for all incubations containing concentrated inhibitor; Par (100% activity)=average PAR for all incubations containing no inhibitor (DMSO controls); % Activity (test inhibitor)=[PAR (test inhibitor)−PAR (0% activity)]/[PAR (100% activity)−PAR (0% activity)]; % Inhibition (test inhibitor)=100-% Activity (test inhibitor).
On the technique in general: Microsomes from liver hold many membrane-bound enzymes, among them those of drug oxidation.

In the next series the target is T2, human TLR8 (Homo sapiens, UniProt Q9NR97).
T2 construct: host or cells: HEK293 (HEK-Blue hTLR8)
T2 sequence (Q9NR97 27-1041): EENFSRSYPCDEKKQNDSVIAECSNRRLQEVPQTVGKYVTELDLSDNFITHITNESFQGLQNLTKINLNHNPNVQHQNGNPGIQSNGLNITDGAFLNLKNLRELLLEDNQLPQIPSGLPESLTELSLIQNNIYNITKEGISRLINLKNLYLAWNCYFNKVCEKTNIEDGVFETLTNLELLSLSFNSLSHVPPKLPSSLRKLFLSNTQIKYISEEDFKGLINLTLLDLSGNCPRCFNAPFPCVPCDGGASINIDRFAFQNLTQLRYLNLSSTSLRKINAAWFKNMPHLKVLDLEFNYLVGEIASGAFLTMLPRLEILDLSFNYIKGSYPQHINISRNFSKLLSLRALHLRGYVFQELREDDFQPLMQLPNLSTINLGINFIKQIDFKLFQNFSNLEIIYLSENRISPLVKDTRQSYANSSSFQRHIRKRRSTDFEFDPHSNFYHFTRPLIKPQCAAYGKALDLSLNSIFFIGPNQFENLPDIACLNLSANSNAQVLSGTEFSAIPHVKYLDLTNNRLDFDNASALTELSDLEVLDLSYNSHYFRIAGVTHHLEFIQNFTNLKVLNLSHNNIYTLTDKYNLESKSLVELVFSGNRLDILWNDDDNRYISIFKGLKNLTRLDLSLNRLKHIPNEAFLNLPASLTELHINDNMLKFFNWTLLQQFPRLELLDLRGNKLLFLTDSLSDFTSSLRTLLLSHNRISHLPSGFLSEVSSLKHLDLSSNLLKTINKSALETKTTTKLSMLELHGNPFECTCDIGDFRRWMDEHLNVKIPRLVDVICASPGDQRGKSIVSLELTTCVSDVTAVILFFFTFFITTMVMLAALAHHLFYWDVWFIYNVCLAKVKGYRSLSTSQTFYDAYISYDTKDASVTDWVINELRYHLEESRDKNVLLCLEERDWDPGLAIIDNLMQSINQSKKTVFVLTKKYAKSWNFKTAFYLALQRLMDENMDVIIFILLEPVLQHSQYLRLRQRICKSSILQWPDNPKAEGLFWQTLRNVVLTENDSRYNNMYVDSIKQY
The series is described as follows: HEK293-Blue-hTLR-8 cells assay (SEAP reporter, R848 stimulation). The format is cell-based. Conditions: HEK293-Blue-hTLR8 cells, R848, 20 hrs; read-out: HEK/hTLR8 IC50. Summed up:
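Antagonism read as reduced R848-induced SEAP reporter secretion, detected by QUANTI-Blue absorbance at 620–655 nm after 2 h. Reporter cells were exposed to compound dilutions in DMEM/10% FBS, 1% DMSO, for 20 h at 37° C.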

In the next series the target is T3, CYP2C9 (Homo sapiens, UniProt P11712).
T3 construct: tissue BD-Gentest 452117; host or cells: human liver microsomes
T3 sequence (P11712 whole entry): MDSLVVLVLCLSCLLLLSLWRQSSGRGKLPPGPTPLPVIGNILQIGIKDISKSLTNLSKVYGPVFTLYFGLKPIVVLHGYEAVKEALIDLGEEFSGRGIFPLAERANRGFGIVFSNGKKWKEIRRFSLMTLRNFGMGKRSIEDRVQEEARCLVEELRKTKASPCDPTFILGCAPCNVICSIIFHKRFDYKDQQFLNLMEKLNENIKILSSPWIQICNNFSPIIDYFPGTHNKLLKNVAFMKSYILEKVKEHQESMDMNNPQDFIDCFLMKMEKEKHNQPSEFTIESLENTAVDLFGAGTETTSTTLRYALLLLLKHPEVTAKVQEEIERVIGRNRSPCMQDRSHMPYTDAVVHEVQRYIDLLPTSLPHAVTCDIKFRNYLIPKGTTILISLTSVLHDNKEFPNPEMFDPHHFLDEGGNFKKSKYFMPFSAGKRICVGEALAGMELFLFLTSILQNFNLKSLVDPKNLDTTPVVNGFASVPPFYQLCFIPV
Description: CYP inhibition assay in human liver microsome, CYP2C9. The conditions noted are these: human, human liver microsomes, probe diclofenac 5 μM, substrate diclofenac 5 μM, first value of 2C9/2D6/3A4. The format is in vitro ADME. As to the method:
as §1, §2, §3, §4, §5

T1 sequence (P10635 whole entry): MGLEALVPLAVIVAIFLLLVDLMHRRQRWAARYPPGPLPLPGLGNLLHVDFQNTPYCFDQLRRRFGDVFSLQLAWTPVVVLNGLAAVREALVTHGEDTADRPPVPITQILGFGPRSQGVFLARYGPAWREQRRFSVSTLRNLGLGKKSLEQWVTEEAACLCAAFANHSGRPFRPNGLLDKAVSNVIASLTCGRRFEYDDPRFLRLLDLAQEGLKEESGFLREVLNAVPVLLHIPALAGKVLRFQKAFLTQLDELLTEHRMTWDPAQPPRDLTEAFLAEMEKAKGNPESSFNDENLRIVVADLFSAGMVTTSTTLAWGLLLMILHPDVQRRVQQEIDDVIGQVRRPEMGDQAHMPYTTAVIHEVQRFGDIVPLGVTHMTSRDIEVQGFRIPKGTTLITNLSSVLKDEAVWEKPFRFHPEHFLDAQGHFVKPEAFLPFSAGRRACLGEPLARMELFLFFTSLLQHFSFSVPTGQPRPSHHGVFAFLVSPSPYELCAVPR

For orientation: inhibition means the relative decrease from the control value, in per cent. On to `Cc1ccc(N2C[C@H](CN3CCN(c4nccc(N5CCNCC5)n4)CC3)O[C@H](C)C2)c2nccnc12` [Example 116, (2R,6S)-2-methyl-4-(8-methylquinoxalin-5-yl)-6-[[4-(4-piperazin-1-ylpyrimidin-2-yl)piperazin-1-yl]methyl]morpholine], for which the inhibition at 10 min, 10 µM against CYP2D6 came to 10%. For the same compound, the IC50 at human TLR8 is 5 nM. For the same compound, the inhibition at 5 min, 10 µM at CYP2C9 is -8.5%.
With `Cc1ccc(N2C[C@H](CN3CCN(c4ccnc(N5CCNCC5)n4)CC3)O[C@H](C)C2)c2nccnc12` [Example 117, (2R,6S)-2-methyl-4-(8-methylquinoxalin-5-yl)-6-[[4-(2-piperazin-1-ylpyrimidin-4-yl)piperazin-1-yl]methyl]morpholine], the inhibition at 10 min, 10 µM at CYP2D6 stood at 4.5%. Besides, the IC50 on human TLR8 worked out at 7 nM. Also, at CYP2C9, the inhibition at 5 min, 10 µM was 8.5%.
With `C[C@@H]1CN(c2ccc(C#N)n3ncc(F)c23)C[C@H](CN2CC(c3ccc(N4CC(C)(N)C4)cc3)C2)O1` [Example 160, 4-[(2S,6R)-2-[[3-[4-(3-amino-3-methyl-azetidin-1-yl)phenyl]azetidin-1-yl]methyl]-6-methyl-morpholin-4-yl]-3-fluoro-pyrazolo[1,5-a]pyridine-7-carbonitrile], the inhibition at 10 min, 10 µM against CYP2D6 was 17%. For the same compound, the IC50 on human TLR8 came to 68 nM. For the same compound, the inhibition at 5 min, 10 µM against CYP2C9 was -1.5%.
In the case of `C[C@@H]1CN(c2ccc(C#N)c3nccnc23)C[C@H](CN2CCN(c3ccnc(N4C[C@H](N)[C@@H](F)C4)n3)CC2)O1` [Example 107, 8-[(2S,6R)-2-[[4-[2-[(3S,4S)-3-amino-4-fluoro-pyrrolidin-1-yl]pyrimidin-4-yl]piperazin-1-yl]methyl]-6-methyl-morpholin-4-yl]quinoxaline-5-carbonitrile], the inhibition at 10 min, 10 µM on CYP2D6 came out at 16%. Further, on human TLR8, the IC50 is 1 nM. The inhibition at 5 min, 10 µM at CYP2C9 came to 19.5%.
On the same counts, the results for `C[C@@H]1CN(c2ccc(C#N)c3ncccc23)C[C@H](CN2CCN(c3ccnc(N4C[C@H](N)[C@@H](F)C4)n3)CC2)O1` [Example 110, 5-[(2S,6R)-2-[[4-[2-[(3S,4S)-3-amino-4-fluoro-pyrrolidin-1-yl]pyrimidin-4-yl]piperazin-1-yl]methyl]-6-methyl-morpholin-4-yl]quinoline-8-carbonitrile] are 13.5%, 2 nM and 22%.
In the case of `CO[C@H]1CN(c2nc(C)cc(N3CCN(C[C@H]4CN(c5ccc(C#N)c6nccnc56)C[C@@H](C)O4)CC3)n2)C[C@@H]1N` [Example 106, 8-[(2S,6R)-2-[[4-[2-[(3S,4S)-3-amino-4-methoxy-pyrrolidin-1-yl]-6-methyl-pyrimidin-4-yl]piperazin-1-yl]methyl]-6-methyl-morpholin-4-yl]quinoxaline-5-carbonitrile], at CYP2D6, the inhibition at 10 min, 10 µM was found to be 3%. Further, the IC50 on human TLR8 worked out at 1 nM. The inhibition at 5 min, 10 µM on CYP2C9 stood at 17%.
`[2H]c1nc2c(C#N)ccc(N3C[C@H](CN4CCN(c5nc(C)cc(N6CC(N)C6)n5)CC4)O[C@H](C)C3)c2nc1[2H]` [Example 124, 8-[(2S,6R)-2-[[4-[4-(3-aminoazetidin-1-yl)-6-methyl-pyrimidin-2-yl]piperazin-1-yl]methyl]-6-methyl-morpholin-4-yl]-2,3-dideuterio-quinoxaline-5-carbonitrile]: the inhibition at 10 min, 10 µM against CYP2D6 was found to be 9.5%. In addition, at human TLR8, the IC50 was determined as 1 nM. Also, the inhibition at 5 min, 10 µM on CYP2C9 was -2%.
The corresponding values for `C[C@@H]1CN(c2ccc(C#N)c3ncccc23)C[C@H](CN2CCC(c3cccc(N4CCNCC4)c3)C2)O1` (stereo partly drawn) [Example 1, 5-[(2R,6S)-2-methyl-6-[[3-(3-piperazin-1-ylphenyl)pyrrolidin-1-yl]methyl]morpholin-4-yl]quinoline-8-carbonitrile] are 5%, 40 nM and -7%.
Take `C[C@@H]1CN(c2ccc(C#N)n3ncc(F)c23)C[C@H](CN2CC(c3ccc(N4C[C@@H]5C[C@H]4CN5)nc3)C2)O1` [Example 165, 4-[(2S,6R)-2-[[3-[6-[(1S,4S)-2,5-diazabicyclo[2.2.1]heptan-2-yl]-3-pyridyl]azetidin-1-yl]methyl]-6-methyl-morpholin-4-yl]-3-fluoro-pyrazolo[1,5-a]pyridine-7-carbonitrile]: the inhibition at 10 min, 10 µM against CYP2D6 amounted to 17.5%. Also, the IC50 at human TLR8 came out at 92 nM. The inhibition at 5 min, 10 µM at CYP2C9 is -8.5%.
`[2H]c1ccc2c(N3C[C@H](CN4CCN(c5ccc(N6CC(C)(N)C6)nc5)CC4)O[C@H](C)C3)ccc(C#N)c2n1` [Example 132, 5-[(2S,6R)-2-[[4-[6-(3-amino-3-methyl-azetidin-1-yl)-3-pyridyl]piperazin-1-yl]methyl]-6-methyl-morpholin-4-yl]-2-deuterio-quinoline-8-carbonitrile]: at CYP2D6, the inhibition at 10 min, 10 µM is -2.5%. Further, the IC50 at human TLR8 was 16 nM. The inhibition at 5 min, 10 µM against CYP2C9 is -1%.
For `Cc1cc(N2CCNCC2)nc(N2CCN(C[C@H]3CN(c4ccc(C#N)c5nccnc45)C[C@@H](C)O3)CC2)n1` [Example 114, 8-[(2R,6S)-2-methyl-6-[[4-(4-methyl-6-piperazin-1-yl-pyrimidin-2-yl)piperazin-1-yl]methyl]morpholin-4-yl]quinoxaline-5-carbonitrile], the inhibition at 10 min, 10 µM against CYP2D6 came out at 32%. Besides, the IC50 at human TLR8 turned out to be 1 nM. Also, the inhibition at 5 min, 10 µM against CYP2C9 is 7.5%.
The corresponding values for `C[C@@H]1CN(c2ccc(C#N)c3ncccc23)C[C@H](CN2CCC(c3cccc(C4CCNCC4)c3)CC2)O1` [Example 2, 5-[(2R,6S)-2-methyl-6-[[4-[3-(4-piperidyl)phenyl]-1-piperidyl]methyl]morpholin-4-yl]quinoline-8-carbonitrile] are 20%, 26 nM and 2%.
Take `C[C@@H]1CN(c2ccc(C#N)c3nccnc23)C[C@H](CN2CCN(c3nccc(N4C[C@@H](N)[C@H](F)C4)n3)CC2)O1` [Example 119, 8-[(2S,6R)-2-[[4-[4-[(3R,4R)-3-amino-4-fluoro-pyrrolidin-1-yl]pyrimidin-2-yl]piperazin-1-yl]methyl]-6-methyl-morpholin-4-yl]quinoxaline-5-carbonitrile]: the inhibition at 10 min, 10 µM against CYP2D6 was -8.5%. The IC50 on human TLR8 was found to be 1 nM. Further, the inhibition at 5 min, 10 µM against CYP2C9 was -12.5%.

These data come from US20210395239A1 (Hoffmann-La Roche Inc., priority 2018, published 2021).
